The record followed here is patent publication US5814654A, “Substituted guanidine derivatives” (Sumitomo Pharmaceuticals Company, Limited, priority 1996, dated 1998).

The target in this assay is T1, Na+/H+ exchange transport system (Rattus norvegicus, UniProt P26431).
T1 construct: using the vascular smooth muscle cells isolated from the rat thoracic aorta; endogenous in cells; host or cells: vascular smooth muscle cells isolated from the rat thoracic aorta
Kind of assay: Inhibitory effect on the Na+/H+ exchange transport system (in vitro), change in intracellular pH during acid loading. Format: cell-based. Conditions: vascular smooth muscle cells isolated from the rat thoracic aorta. The protocol:
Inhibitory effect on the Na+/H+ exchange transport system (in vitro)
The test was carried out according to the method of Yamori et al. (J. Hypertension, 8, 153 (1990)). In detail, inhibitory effect on the Na+/H+ exchange transport system was evaluated by the change in intracellular pH during acid loading, using the vascular smooth muscle cells isolated from the rat thoracic aorta.

T1 sequence (P26431 whole entry): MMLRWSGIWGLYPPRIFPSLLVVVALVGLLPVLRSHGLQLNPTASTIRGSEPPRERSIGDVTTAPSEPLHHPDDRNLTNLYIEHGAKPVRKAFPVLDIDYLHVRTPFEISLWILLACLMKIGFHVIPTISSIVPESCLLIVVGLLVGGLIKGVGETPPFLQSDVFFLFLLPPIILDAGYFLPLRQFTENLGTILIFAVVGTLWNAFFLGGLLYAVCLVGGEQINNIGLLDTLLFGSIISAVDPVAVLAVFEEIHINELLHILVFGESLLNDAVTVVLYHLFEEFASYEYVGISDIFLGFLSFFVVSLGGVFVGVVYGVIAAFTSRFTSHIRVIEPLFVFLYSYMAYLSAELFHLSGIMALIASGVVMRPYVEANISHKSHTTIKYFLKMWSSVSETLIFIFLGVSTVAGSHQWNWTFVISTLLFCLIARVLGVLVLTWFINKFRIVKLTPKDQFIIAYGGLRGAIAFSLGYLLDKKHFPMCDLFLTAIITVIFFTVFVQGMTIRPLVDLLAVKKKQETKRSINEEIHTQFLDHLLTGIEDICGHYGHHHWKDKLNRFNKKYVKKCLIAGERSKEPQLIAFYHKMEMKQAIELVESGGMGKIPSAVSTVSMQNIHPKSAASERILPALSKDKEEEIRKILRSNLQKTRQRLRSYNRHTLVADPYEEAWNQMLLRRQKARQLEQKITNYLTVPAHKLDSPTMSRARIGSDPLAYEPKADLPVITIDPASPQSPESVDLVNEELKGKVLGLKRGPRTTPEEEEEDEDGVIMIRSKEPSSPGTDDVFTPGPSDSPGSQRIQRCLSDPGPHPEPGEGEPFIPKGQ

The IC50 is the point on the concentration scale where inhibition reaches its midpoint. Higher therefore signals weaker potency. In turn, `NC(N)=NC(=O)c1[nH]c2cccc3c2c1CCC3` [Example 3, N-(aminoiminomethyl)-1,3,4,5-tetrahydro-benz[cd]indole-2-carboxamide methanesulfonate] had an IC50 of 700 nM.
As for `Cn1c(C(=O)N=C(N)N)c2c3c(cccc31)CCC2` [Example 2, N-(aminoiminomethyl)-1,3,4,5-tetrahydro-1-methyl-benz[cd]indole-2-carboxamide methanesulfonate], the figure is 150 nM; as for `NC(N)=NC(=O)c1[nH]c2cccc3c2c1CCC3=O` [Example 1, N-(aminoiminomethyl)-1,3,4,5-tetrahydro-5-oxo-benz[cd]indole-2-carboxamidemethanesulfonate], 4000 nM.
